Laboratory results as given in patent US20140005160A1, “Method for Treating Refractory Cancer” (priority 2010, published 2014).
Like-named read-outs stand apart in the source and are kept apart here.

How the values were obtained:
[1] = tested on: PC-3 cell line; details: PC-3, from Domingo-Domenech et al. 2006; cited from earlier work
[2] = tested on: PC-3 cell line; experiment: Published literature IC50 of docetaxel, PC-3; format: cell-based, human; details: ratio from published literature IC50 values
[3] = tested on: LNCaP cell line; details: from Domingo-Domenech et al. 2006; cited from earlier work
[4] = tested on: human melanoma cell line A375; experiment: ATCC MTT Cell Proliferation Assay, A375
Experimental: (§6) Stock cultures were allowed to grow to 70-80% confluence for this study. […] ZR-75-1 plates were seeded with 3,000 cells/well, and the cells were grown in RPMI1640 medium containing 1% (1M HEPES), 1% sodium pyruvate, 1% (45% Glucose), 10% FBS and 1% penicillin/strep/glutamine. Cultures were maintained in a 37° C. humidified 5% CO2/95% air atmosphere. […] 100 μl of medium was removed from each well at 72 hours post-treatment and 10 μl MTT reagent was added to each well. The plates were incubated at 37° C. for 4 hours and then 100 μl of detergent was added. The plates were left overnight at room temperature in the dark and was read on a plate reader using SoftMax® Pro (version 5.2, Molecular Devices).
(§7) The absorbance data was analyzed as follows: Absorbance values were converted to Percent of Control and plotted against test agent concentrations for IC50 calculations using SoftMax® Pro (version 5.2, Molecular Devices). […] Percent of Control values were calculated by dividing the absorbance values for each test well by the No Drug Control average (column 11 values; cells+vehicle control) and multiplying by 100. Plots of Compound Concentration versus Percent of Control were analyzed using the 4-parameter equation to obtain IC50 values and other parameters that describe the sigmoidal dose response curve. […]

[5] = tested on: human lung carcinoma cell line H1975; experiment: ATCC MTT Cell Proliferation Assay, H1975; format: cell-based; details: H1975 (KRAS wild type), same manner as Example 2
Description: (§1) Table 2 summarizes the results.

[6] = tested on: breast cancer cell line MCF-7; experiment: ATCC MTT Cell Proliferation Assay, MCF-7; format: cell-based; details: MCF-7, same manner as Example 2
[7] = tested on: human renal cell line A498; details: A498, same manner as Example 2
Description: See e.g., Mahalingam et al., Clin. Cancer Res., 16(1):141-153 (2010).

[8] = tested on: alveolar epithelial cell carcinoma cell line SW-1573; details: SW1573 cell line, 72 hours, EZ4U MTT
Experimental: (§2) The alveolar epithelial cell carcinoma cell line SW-1573 and its MVP- and MRP1-overexpressing subline SW-1573/2R120 were grown in DMEM medium supplemented with 10% fetal calf serum. See Elbling et al., Cytometry, 31:187-198 (1998). Cells were plated (2×10^3 cells in 100 μl/well) in 96-well plates and allowed to recover for 24 hours. […] The proportion of viable cells was determined by MTT assay following the manufacturer's recommendations (EZ4U, Biomedica, Vienna, Austria). […] PGP/MRP-1-overexpression confers resistance to drugs such as vincristine, vinblastine, vinorelbine, taxol, docetaxel, etoposide, mitoxantrone, doxorubincin, epirubicin, topotecan, irinotecan, methotrexate, and imatinib etc. See Fojo & Menefee, Ann. Oncol., 18 (Supplement 5):v3-v8 (2007).

[9] = tested on: MVP- and MRP1-overexpressing subline SW-1573/2R120; details: PGP/MRP-1-overexpressing cell line (SW-1573/2R120), 72 hours, EZ4U MTT
Experimental: as §2

[10] = tested on: breast cancer cell line MDA-MB-231; experiment: ATCC MTT Cell Proliferation Assay, MDA-MB-231; format: cell-based; details: for IC50: MDA-MB-231, same manner as Example 2 (Table 3); for IC50 Ratio (MDA-MB-231/MCF-7): ratio of IC50 in MDA-MB-231 to MCF-7
[11] = tested on: human breast carcinoma cell line ZR-75-1; experiment: ATCC MTT Cell Proliferation Assay, ZR-75-1; format: cell-based; details: for IC50: ZR-75-1, 72 hours, MTT; for IC50 Ratio (ZR-75-1/MX-1): ratio of IC50 in ZR-75-1 to MX-1
Experimental: as §6
The absorbance data was analyzed as follows: Absorbance values were converted to Percent of Control and plotted against test agent concentrations for IC50 calculations using SoftMax® Pro (version 5.2, Molecular Devices). The plate blank signal average was subtracted from all wells prior to calculating the Percent of Control. Percent of Control values were calculated by dividing the absorbance values for each test well by the No Drug Control average (column 11 values; cells+vehicle control) and multiplying by 100. Plots of Compound Concentration versus Percent of Control were analyzed using the 4-parameter equation to obtain IC50 values and other parameters that describe the sigmoidal dose response curve.
The IC50 value for the test agent was estimated by curve-fitting the data using the following four parameter-logistic equation:
wherein “Top” is the maximal % of control absorbance (100%), “Bottom” is the minimal % of control absorbance at the highest agent concentration (down to zero), Y is the Percent of Control absorbance, X is the test agent Concentration, IC50 is the concentration of agent that inhibits cell growth by 50% compared to the control cells, n is the slope of the curve.

[12] = tested on: breast cancer cell line MDA-MB-231; details: MDA-MB-231, 72 hours, EZ4U MTT (Table 4)
Experimental: (§3) Breast cancer cell line MDA-MB-231 and its corresponding bcrp-overexpressing line MDA-MB-231/bcrp were plated (2×10^3 cells in 100 μl/well) in 96-well plates and allowed to recover for 24 hours. […] The proportion of viable cells was determined by MTT assay following the manufacturer's recommendations (EZ4U, Biomedica, Vienna, Austria), and IC50 values were calculated. […] BCRP-overexpression confers resistance to drugs such as irinotecan, topotecan, mitoxantrone, methotrexate, camptothecins, gefitinib and imatinib etc. See Fojo & Menefee, Ann. Oncol., 18 (Supplement 5):v3-v8 (2007).

[13] = tested on: bcrp-overexpressing line MDA-MB-231/bcrp; details: 72 hours, EZ4U MTT
Experimental: as §3

[14] = tested on: human lung carcinoma cell line A549; experiment: ATCC MTT Cell Proliferation Assay, A549; format: cell-based; details: for IC50 Ratio (A549/H1975): Table 5, ratio of IC50 in A549 to H1975
[15] = tested on: human lung carcinoma cell line NCI-H322M; experiment: ATCC MTT Cell Proliferation Assay, NCI-H322M; format: cell-based; details: for IC50: NCI-H322M (KRAS wild type), same manner as Example 2
Description: as §1

[16] = tested on: human prostate cancer cell line LNCaP (prostate carcinoma); details: same manner as Example 2
Description: (§4) In addition, the IC50 values of docetaxel in the LNCaP and PC-3 cell lines were obtained from published literature. […] See Domingo-Domenech et al., Clin. Cancer Res., 12(18):5578-5586 (2006); Blagosklonny et al., J. Urol., 163(3):1022-6 (2000).

[17] = tested on: human prostate cancer cell line PC-3 (prostate carcinoma)
Description: as §4

[18] = tested on: HCT-116 p53 (−/−); details: Colon HCT-116 p53 (−/−), 72 hours exposure, MTT
Experimental: (§5) The colon carcinoma cell line HCT116 (HCT-116 p53 (+/+)) and the corresponding subline with deleted p53 genes (HCT-116 p53 (−/−)) were grown in McCoy's culture medium with 10% FCS. […] For cytotoxicity assays, cells were plated (2×10^3 cells in 100 μl/well) in 96-well plates and allowed to recover for 24 hours. […] The proportion of viable cells was determined by MTT assay following the manufacturer's recommendations (EZ4U, Biomedica, Vienna, Austria).

[19] = tested on: HCT-116 p53 (+/+); details: Colon HCT-116 p53 (+/+), 72 hours exposure, MTT
Experimental: as §5

[20] = tested on: human breast cancer cell line MX-1; experiment: ATCC MTT Cell Proliferation Assay, MX-1; format: cell-based; details: MX-1, 72 hours
Experimental: as §6, §7

For `CC(=O)O[C@@]12CO[C@@H]1C[C@H](O)[C@@]1(C)C(=O)[C@H](O)C3=C(C)[C@@H](OC(=O)[C@H](O)[C@@H](NC(=O)OC(C)(C)C)c4ccccc4)C[C@@](O)([C@@H](OC(=O)c4ccccc4)[C@H]21)C3(C)C` [Docetaxel, docetaxel], the IC50 [1] is given as 0.05 to 0.06 µM, the “IC50 Ratio (PC-3/LNCaP/)” value [2] is given as 12-20 and the IC50 [3] is given as 0.0025 to 0.005 µM.
Molecule `Cn1nnc2c(C(N)=O)ncn2c1=O` [temozolomide, reference compound] has an IC50 ([4]; Homo sapiens, A-375) of 369 µM.
For `[Ga+3].[O-]c1cccc2cccnc12.[O-]c1cccc2cccnc12.[O-]c1cccc2cccnc12`, the IC50 [5] was 3.55 µM, the IC50 [6] was 1.23 µM and the IC50 [7] was 32.9 µM. For the same molecule, the IC50 [8] was 1.7 µM, the IC50 [9] was 2.1 µM and the IC50 [10] was 0.838 µM. For the same molecule, the “IC50 Ratio (MDA-MB-231/MCF-7)” value [10] was 0.681, the IC50 [11] was 1.59 µM and the “IC50 Ratio (ZR-75-1/MX-1)” value [11] was 0.77. For the same molecule, the IC50 [12] was 1.6 µM, the IC50 [13] was 1.8 µM and the IC50 ([14]; A549 (KRAS G12S), same manner as Example 2) was 1.11 µM. For the same molecule, the “IC50 Ratio (A549/H1975)” value [14] was 0.31, the IC50 [15] was 4.95 µM and the “IC50 Ratio (A549/H1975)” value ([15]; Table 6, Test Drug column, row NCI-H322M) was 1.39. For the same molecule, the IC50 [16] was 2.19 µM, the IC50 ([17]; PC-3, same manner as Example 2) was 1.79 µM and the “IC50 Ratio (PC-3/LNCaP)” value ([17]; ratio of IC50 in PC-3 to LNCaP) was 0.82. It also gave an IC50 ([4]; A375, same manner as Example 2) of 1.95 µM, an IC50 [18] of 1.7 µM and an IC50 [19] of 1.8 µM. It also gave an IC50 [20] of 2.06 µM.
Molecule `N.N.[Cl][Pt][Cl]` [Cisplatin, cisplatin, reference compound] has an IC50 [5] of 11.4 µM, an IC50 [6] of 8.01 µM and an IC50 [10] of 47.1 µM. For the same molecule, the “IC50 Ratio (MDA-MB-231/MCF-7)” value [10] was 5.88, the IC50 [15] was 52.3 µM and the “IC50 Ratio (NCI-H322M/H1975)” value ([15]; Table 6, cisplatin column) was 4.59.
In the case of `CC(=O)O[C@H]1C(=O)[C@@]2(C)[C@H]([C@H](OC(=O)c3ccccc3)[C@]3(O)C[C@H](OC(=O)[C@H](O)[C@@H](NC(=O)c4ccccc4)c4ccccc4)C(C)=C1C3(C)C)[C@]1(OC(C)=O)CO[C@@H]1C[C@@H]2O` [Paclitaxel, paclitaxel, reference compound], the IC50 ([5]; Homo sapiens, NCI-H1975) is reported as 0.005 µM and the “IC50 Ratio (A549/H1975)” value [14] is reported as 1984.
In the case of `O=c1[nH]cc(F)c(=O)[nH]1` [5-FU, 5-fluorouracil, reference compound], the IC50 ([11]; Homo sapiens) is reported as 31.1 µM, the “IC50 Ratio (ZR-75-1/MX-1)” value [11] is reported as 21.2 and the IC50 ([20]; Homo sapiens) is reported as 1.47 µM.
